Here are results for two compounds from patent publication US20070237848A1, “MORINDA CITRIFOLIA BASED COMPOSITIONS FOR TREATMENT OF ANTI-INFLAMMATORY DISEASES THROUGH INHIBITION OF COX-1, COX-2, INTERLEUKIN-1beta, INTERLEUKIN-6, TNF-alpha, HLE, AND iNOS” (priority 2005, published 2007).

Assay [1] relates to inducible Nitrite Oxide Synthase (iNOS). The experiment in a line: iNOS assay in LPS-stimulated murine macrophages (J774A.1). The following applies: standard reference agent. In kind it is cell-based. As to the method: An iNOS Assay was performed as follows. Murine Macrophages (1.5*10^5 cells/well) were seeded for 24 hours. After preincubating the samples with the cells at room temperature for 10 minutes, the reaction was started with 1 μg/ml LPS (E.coli 055:B5). The incubation time was 24 hours at 37° C. and 5% CO 2. The controls [t(0)] were performed without LPS stimulation. The quantification of Nitric Oxide was performed with a Nitric Oxide Colorimetric Assay Kit from BioVision (Art.Nr: #K262-200). The optical densities were measured at λ=570 nm. […] Sample points were measured in triplicate. […] The following tables and charts and FIG. 9 summarize the assay and the results.

The target in assay [2] is T1, Human Leukocyte Elastase (HLE) (Homo sapiens, UniProt P08246).
T1 sequence (P08246 30-267): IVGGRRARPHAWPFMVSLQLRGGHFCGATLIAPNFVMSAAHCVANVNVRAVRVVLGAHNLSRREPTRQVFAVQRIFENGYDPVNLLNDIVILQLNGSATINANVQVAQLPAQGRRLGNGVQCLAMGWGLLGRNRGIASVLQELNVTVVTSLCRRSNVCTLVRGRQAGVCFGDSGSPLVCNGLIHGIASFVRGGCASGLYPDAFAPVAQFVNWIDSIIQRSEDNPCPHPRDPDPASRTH
The experiment in a line: Leukocyte Elastase Assay (p-Nitroaniline, photometric). It is filed as biochemical. Particulars: standard reference agent. The method, then: A Leukocyte Elastase Assay was performed as follows. After preincubating the samples with the enzyme HLE (20 nM) at room temperature for 10 minutes, the reaction was started with an enzyme substrate (5 mM). The reaction time was 15 min at room temperature. The controls [t(0)] were performed without enzyme. […] The quantification of p-Nitroaniline was performed by direct photometrical measurement.
All sample points were measured in duplicate. […] The following tables, charts, and FIGS. 8A and 8B summarize the assay and the results.

The IC50 is the concentration needed to halve the response being measured. Low values mean greater potency, high ones weaker potency. In assay [1], `COC(=O)[C@@H](N)CCCNC(=N)N[N+](=O)[O-]` [L-NAME] registered an IC50 of 600 µM.
In turn, `C[C@H]1[C@H](C)CC[C@]2(C(=O)O)CC[C@]3(C)C(=CC[C@@H]4[C@@]5(C)CC[C@H](O)C(C)(C)[C@@H]5CC[C@]43C)[C@H]12` [Ursolic acid] registered an IC50 in assay [2] of 30 µM.
